Columns and labels:
NF-κB [1] = assay: 293-cell pNF-κB-luc reporter assay, TNF-α induced; format: cell-based; settings: for EC50: HEK293 cells, NF-κB driven luciferase expression, read-out: 293/NFkB-luc EC50
In short: (§1)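 HEK293 cells with stably integrated NF-κB reporters, pNF-κB-luc (3 elements) or pTRH1-NF-κB-dscGFP (4 elements). Cells pretreated 2 h with 0–40 μM compound, then stimulated with 20 ng/ml TNF-α for 18 h; luminescence or fluorescence read. Activity referenced to 0.5% DMSO control; median of three independent experiments.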

p50 = target: T1, p50 (Homo sapiens, UniProt P19838); assay: TransAM NF-κB Family DNA Binding ELISA, p50; settings: p50 binding IC50 (uM), cells without % sign
T1 sequence (P19838 1-433 limits assumed): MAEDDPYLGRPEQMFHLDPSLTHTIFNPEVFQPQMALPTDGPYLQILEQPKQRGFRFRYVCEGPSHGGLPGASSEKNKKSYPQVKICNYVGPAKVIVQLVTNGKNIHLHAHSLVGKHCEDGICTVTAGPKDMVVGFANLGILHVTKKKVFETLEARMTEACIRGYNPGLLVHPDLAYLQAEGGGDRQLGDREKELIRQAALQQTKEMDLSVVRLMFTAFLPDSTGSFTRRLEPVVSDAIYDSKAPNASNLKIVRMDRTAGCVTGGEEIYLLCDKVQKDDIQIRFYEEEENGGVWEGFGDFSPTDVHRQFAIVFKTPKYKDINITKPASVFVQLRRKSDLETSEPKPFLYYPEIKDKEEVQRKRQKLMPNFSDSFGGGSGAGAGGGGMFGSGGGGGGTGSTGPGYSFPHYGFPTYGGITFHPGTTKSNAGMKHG

p52 = target: T2, p52 (Homo sapiens, UniProt Q00653); assay: TransAM NF-κB Family DNA Binding ELISA, p52; settings: p52 binding IC50 (uM), cells without % sign
T2 sequence (Q00653 1-454 limits assumed): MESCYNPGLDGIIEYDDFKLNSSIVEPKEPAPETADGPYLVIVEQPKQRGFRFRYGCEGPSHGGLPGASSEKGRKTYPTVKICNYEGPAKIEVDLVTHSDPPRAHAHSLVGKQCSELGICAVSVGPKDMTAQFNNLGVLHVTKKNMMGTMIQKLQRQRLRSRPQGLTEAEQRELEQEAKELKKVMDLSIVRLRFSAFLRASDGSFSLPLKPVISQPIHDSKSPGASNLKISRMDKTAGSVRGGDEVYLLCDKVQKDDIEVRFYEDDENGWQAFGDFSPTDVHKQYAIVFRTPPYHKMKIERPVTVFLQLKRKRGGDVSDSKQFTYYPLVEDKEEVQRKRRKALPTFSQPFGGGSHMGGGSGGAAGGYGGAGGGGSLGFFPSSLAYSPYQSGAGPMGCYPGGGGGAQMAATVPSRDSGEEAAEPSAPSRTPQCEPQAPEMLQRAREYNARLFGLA
Method: (§2) Treated samples were then transferred to 30 μL Complete Binding Buffer (with DTT) in microplate wells pre-coated with the NF-κB consensus oligonucleotide. […] The plate was incubated for 1 hour at room temperature with gentle shaking and then washed 3 times with 200 μL 1× Wash Buffer. NF-κB p65, p50, p52, RelB, or c-Rel subunits bound to the plate were detected with 100 μL of the primary antibody (diluted 1:1000 in 1× Antibody Buffer) specific for that subunit. The plate was incubated for 1 hour at room temperature and then washed 3 times with 200 μL 1× Wash Buffer. Next, 100 μL of a HRP conjugated goat anti-rabbit antibody (diluted 1:1,000 in 1× Antibody Buffer) was added to each well. The plate was incubated for 1 hour at room temperature and then washed 4 times with 200 μL 1× Wash Buffer. 100 μL of room temperature Developing Solution was added to each well. The reaction was allowed to develop for 2-10 minutes until a medium dark blue color developed (depending on the subunit activity in the lot of extract or lot of recombinant protein used) and then the reaction was stopped with 100 μL Stop Solution yielding a yellow color. Absorbance was recorded using a Becton-Dickinson DTX 880 Multimode Detector at 450 nm with a reference wavelength subtracted at 620 nm.

[2] = system: IL-6 release from RAW264.7 cells; assay: IL-6 release from LPS stimulated RAW264.7 cells; format: cell-based, mouse; settings: for EC50: Mus musculus, RAW264.7, RAW 264.7 cells
Method: Specifically, A and B show the effects of the compound of Example 1 on soluble PGE2 and Il-6 secretion from RAW264.7 cells stimulated by 1 μg/mL of LPS. The cells were treated with the indicated concentrations of the compound of Example 1 for 2 hours, and then LPS was added and incubation continued for 4 hours. […]

p65 (RelA) = p65 (RelA) (Homo sapiens, UniProt Q04206); assay: TransAM NF-κB Family DNA Binding ELISA, p65; settings: for IC50: p65 binding IC50 (uM), binding to NF-κB sites
Method: as §2

c-Rel = target: T3, c-Rel (Homo sapiens, UniProt Q04864); assay: TransAM NF-κB Family DNA Binding ELISA, c-Rel; settings: c-Rel binding IC50 (uM), cells without % sign
T3 sequence (Q04864 2-619 limits assumed): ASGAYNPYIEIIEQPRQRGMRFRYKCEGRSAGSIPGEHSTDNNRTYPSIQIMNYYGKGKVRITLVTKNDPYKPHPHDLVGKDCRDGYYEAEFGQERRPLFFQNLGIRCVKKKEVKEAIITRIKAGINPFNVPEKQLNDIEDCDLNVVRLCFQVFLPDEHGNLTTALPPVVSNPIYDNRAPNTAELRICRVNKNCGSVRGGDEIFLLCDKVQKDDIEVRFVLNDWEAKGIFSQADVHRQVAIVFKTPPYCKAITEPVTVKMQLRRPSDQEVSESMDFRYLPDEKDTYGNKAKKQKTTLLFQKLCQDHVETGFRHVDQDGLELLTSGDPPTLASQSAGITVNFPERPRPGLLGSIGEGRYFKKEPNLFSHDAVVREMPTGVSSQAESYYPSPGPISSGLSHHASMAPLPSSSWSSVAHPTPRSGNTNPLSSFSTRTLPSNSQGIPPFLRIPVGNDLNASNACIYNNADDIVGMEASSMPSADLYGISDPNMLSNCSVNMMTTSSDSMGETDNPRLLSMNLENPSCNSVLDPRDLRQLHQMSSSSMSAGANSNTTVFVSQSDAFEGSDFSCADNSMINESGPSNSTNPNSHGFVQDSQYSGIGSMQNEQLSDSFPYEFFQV
Method: as §2

NF-κB [3] = assay: 293-cell pTRH1-NF-κB-dscGFP reporter assay, TNF-α induced; format: cell-based; settings: for EC50: Homo sapiens, HEK293, HEK293 cells, NF-κB driven GFP expression, read-out: NF-kB/293/GFP EC50
In short: as §1

Sequence of p65 (RelA) (Q04206 whole entry): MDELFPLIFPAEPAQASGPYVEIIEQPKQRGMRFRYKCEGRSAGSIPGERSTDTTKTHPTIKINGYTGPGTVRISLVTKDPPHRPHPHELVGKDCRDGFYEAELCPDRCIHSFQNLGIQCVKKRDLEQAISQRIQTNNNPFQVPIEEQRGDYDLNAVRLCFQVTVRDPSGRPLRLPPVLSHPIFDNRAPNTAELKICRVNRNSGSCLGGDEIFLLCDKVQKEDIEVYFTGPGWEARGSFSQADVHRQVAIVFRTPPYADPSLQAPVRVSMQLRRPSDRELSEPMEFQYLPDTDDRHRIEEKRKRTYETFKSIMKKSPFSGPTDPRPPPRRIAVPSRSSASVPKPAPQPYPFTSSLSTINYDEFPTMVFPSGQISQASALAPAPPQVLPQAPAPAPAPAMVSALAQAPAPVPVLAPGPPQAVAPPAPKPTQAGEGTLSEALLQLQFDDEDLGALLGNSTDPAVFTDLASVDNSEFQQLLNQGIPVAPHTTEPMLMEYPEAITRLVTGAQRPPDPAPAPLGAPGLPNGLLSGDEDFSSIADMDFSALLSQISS

IC50 (NF-κB [1]; 2 hours pre-treatment, 20 ng/ml TNF-α 18 hours, median of three experiments ± standard error, read-out: median IC50, expression of the luciferase gene) [µM] | IC50 (NF-κB [3]; 2 hours pre-treatment, 20 ng/ml TNF-α 18 hours, median of three experiments ± standard error, read-out: median IC50, expression of the Green fluorescent protein gene) [µM] | Compound | EC50 (NF-κB [1]) [µM] | IC50 (p50) [µM] | IC50 (p52) [µM] | inhibition of IL-6 ([2]; LPS stimulated RAW264.7, FIG. 5B) | EC50 [2] [µM] | IC50 (p65 (RelA)) [µM] | IC50 (c-Rel) [µM] | EC50 (NF-κB [3]) [µM] | inhibition of p65 (RelA) binding to DNA, comparison (p65 (RelA); FIG. 7, canonical pathway)
16.2 ± 1.1 | 6.2 ± 0.5 | O=C(NC1=CC(=O)C2OC2C1O)c1cccnc1O (racemic) [Example 1, (±)-2-hydroxy-N-(2-hydroxy-5-oxo-7-oxabicyclo[4.1.0]hept-3-en-3-yl)nicotinamide] | 6.2 | 26 | 13 | inhibited in a dose dependent manor | 6.5 | 2.2 | 4.6 | 6.2 | 
 |  | O=C(NC1=CC(=O)C2OC2C1O)c1cc2ccccc2nc1O (racemic) [Example 2, (±)-2-hydroxy-N-(2-hydroxy-5-oxo-7-oxabicyclo[4.1.0]hept-3-en-3-yl)quinoline-3-carboxamide] | 4.1 | 2.1 | 6 |  | 0.24 | 1.4 | 2.1 | 0.21 | more potently than DHMEQ and parthenolide
